The structures appear in SMILES notation.

The series is described as follows: gradient 5% acetonitrile 3 min, to 50% in 2 min, to 85% in 15 min, held 3 min, 100 µL/min. The conditions noted are these: column: Zorbax Extend-C18 2.1 x 50 mm; eluents: water / acetonitrile, 0.1% formic acid. Summed up: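 Pure standards were run in mixtures of ~100 molecules by HPLC coupled to a quadrupole time-of-flight mass spectrometer. The column was a Zorbax Extend-C18 (2.1 × 50 mm, 1.8 μm) at 100 μL/min, with water and acetonitrile each containing 0.1% formic acid, in positive and negative ionization mode. Dead and dwell volumes were 40 μL and 900 μL. Retention time was taken from computationally picked adduct peaks, each manually inspected, with data collected over 3 months.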
For `O=C(Nc1cnc(N2CCCCCC2)nc1)c1cc(F)cc(F)c1`, the RP-LC retention time is 1020 s.

Take `COc1ccc(-n2ccc(=O)c(-c3nc(-c4cccc(OC)c4OC)no3)n2)cc1`: the RP-LC retention time was determined as 824 s.

In turn, `Cn1c(=O)c(C(=O)NCc2ccccc2Cl)nc2cccnc21` displayed an RP-LC retention time of 728 s.

On to `Cc1ccc(-c2noc(-c3cccc(S(=O)(=O)NCCN4CCC(C)CC4)c3)n2)cc1`, for which the RP-LC retention time amounted to 831 s.

The compound `CN1C(=O)c2cc(S(=O)(=O)Nc3ccc4c(c3)OCO4)ccc2Oc2cccnc21` registered an RP-LC retention time of 850 s.

As for `COc1ccc(N2CCN(c3ncc4c(n3)CCN(Cc3cccc(F)c3)C4)CC2)cc1`, the RP-LC retention time was determined as 648 s.

Compound `Cn1nnc2cc(C(=O)N3CCC(C(=O)NC4CCCc5ccccc54)CC3)ccc21` (stereo not given) yielded an RP-LC retention time of 728 s.

Compound `Cc1cc2n(n1)CCC(=O)N2CCCC(=O)NCCc1ccccc1` registered an RP-LC retention time of 666 s.

With `COc1cc(NC(=O)Cn2c(=O)nc(N3CCCC(C)C3)c3ccccc32)cc(OC)c1` (stereo not given), the RP-LC retention time is 838 s.

The compound `Cc1ccc2[nH]cc(NC(=O)NCCN(C)C)c(=O)c2c1` showed an RP-LC retention time of 563 s.

Take `CCCN1C(=O)COc2ccc(-c3noc(-c4ccc(C(F)(F)F)cc4)n3)cc21`: the RP-LC retention time amounted to 1050 s.

As to `CC(Cc1ccco1)NC(=O)c1ccc2c(c1)nc1n2CCCCC1` (stereo not given), the RP-LC retention time came out at 620 s.

Compound `CCS(=O)(=O)N1C[C@@H](COc2ccncc2)[C@H](c2ccccn2)C1` yielded an RP-LC retention time of 512 s.

`COc1ccc(Nc2c(C(=O)N3CCCCC3C)cnc3nc(C)ccc23)cc1` (stereo not given) registered an RP-LC retention time of 639 s.

Consider `Clc1ccc(-c2ccc(CNCC3CCNCC3)o2)c(Cl)c1`, for which the RP-LC retention time amounted to 611 s.

Regarding `CC(=O)N1CCC(C2CCN(Cc3ccc(Br)s3)C2)CC1` (stereo not given), the RP-LC retention time came to 603 s.

Compound `Cc1cc(OCC(=O)N2CCC(C)CC2)nc(-c2ccc(F)cc2)n1` returned an RP-LC retention time of 1040 s.

The compound `CCc1nnc(-c2cn(CC(=O)Nc3c(Cl)cc(OC)cc3OC)c3ccccc23)o1` showed an RP-LC retention time of 909 s.

Consider `Cc1cc(C)cc(NS(=O)(=O)c2c(C)sc(C)c2-c2cc(C)[nH]n2)c1`, for which the RP-LC retention time was determined as 1100 s.

Compound `Cc1ccc(NS(=O)(=O)c2cc(-c3[nH]ncc3C(=O)N3CCOCC3)oc2C)cc1` had an RP-LC retention time of 695 s.

`COc1cccc(CNC(=O)Cn2nc3c4cccc(C)c4ncn3c2=O)c1OC` registered an RP-LC retention time of 630 s.

Consider `COc1ccc(-c2noc(C3CCCN3C(=O)C3CCCC3)n2)cc1` (stereo not given), for which the RP-LC retention time was 978 s.

The compound `CN(CC1CCCO1)c1nc(-c2ccc([N+](=O)[O-])cc2)cs1` (stereo not given) registered an RP-LC retention time of 1110 s.

Regarding `CCOC(=O)c1ccc(NC(=O)Nc2c(-c3ccncc3)nc3ccccn23)cc1`, the RP-LC retention time amounted to 631 s.

On to `CCCN(C)c1nccnc1OC1CCN(C(=O)C2CC2)C1` (stereo not given), for which the RP-LC retention time was determined as 724 s.

The compound `CCCCN(C)C(=O)C(C)n1nc(C)c2nn(-c3ccccc3)c(-n3cccc3)c2c1=O` (stereo not given) showed an RP-LC retention time of 1010 s.

For `COC(=O)c1ccc2c(=O)n(-c3cccc(Cl)c3)c(N3CCCC3)nc2c1`, the RP-LC retention time was 1040 s.

The compound `Clc1c(Cl)c(Cl)c2n[nH]nc2c1Cl` returned an RP-LC retention time of 962 s.

`CCc1ccc(NC(=O)Cn2nc3cc(C)nc(N4CCCC4)n3c2=O)cc1` showed an RP-LC retention time of 968 s.

Compound `Cc1nc(-c2ccc(NC(=O)c3ccc([N+](=O)[O-])cc3)cc2)cs1` showed an RP-LC retention time of 855 s.

In turn, `Cc1ccc(-c2nnc(N3CCC(C(=O)NCCCN4CCCC4=O)CC3)o2)cc1` gave an RP-LC retention time of 660 s.

For the compound `O=C(NCc1cccnc1)C1CCCN(c2ncnc3c2oc2ccccc23)C1` (stereo not given), the RP-LC retention time came out at 576 s.

`COc1ccc(-n2ccc(=O)c(-c3nc(-c4ccccc4F)no3)n2)cc1OC` registered an RP-LC retention time of 770 s.

`COc1ccc(C)cc1NC(=O)c1nc(-c2cn(Cc3ccc(F)cc3)nn2)no1`: the RP-LC retention time was found to be 961 s.

Take `Cc1cc(=O)n(Cc2ccc(F)cc2)c(N2CCSCC2)n1`: the RP-LC retention time turned out to be 917 s.

Compound `COC1C(=O)N(C2CCN(C(=O)c3cnccn3)CC2)C12CCOCC2` (stereo not given) registered an RP-LC retention time of 555 s.

`CCc1ccc(-n2ncc3c(=O)n(Cc4nc(-c5cccc(C)c5)no4)cnc32)cc1` registered an RP-LC retention time of 1210 s.

Compound `Cc1cc2nc(NCCCO)n(CC(=O)c3cc(C(C)(C)C)c(O)c(C(C)(C)C)c3)c2cc1C` registered an RP-LC retention time of 1030 s.

The compound `O=C(c1cccs1)N1CCC(c2noc(-c3ccncc3)n2)C1` (stereo not given) gave an RP-LC retention time of 685 s.

`COc1ccc(-n2c(=O)n(C)c(=O)c3cc(C(=O)Nc4cccc(Cl)c4)cnc32)cc1` came in with an RP-LC retention time of 1010 s.

In turn, `CCCN(C)C(=O)C1c2ccccc2CC(=O)N1Cc1ccccc1` (stereo not given) registered an RP-LC retention time of 828 s.

The compound `CCCC(=O)N1CCC(C(=O)NCCc2cscn2)CC1` displayed an RP-LC retention time of 596 s.

`CCC1CCCCN1CCCNC(=O)CCc1cc2ccccc2[nH]c1=O` (stereo not given) yielded an RP-LC retention time of 598 s.

As for `CCn1nc(C)c(CCN(C)C(=O)c2cc3c(s2)N(C)CCCC3)c1C`, the RP-LC retention time is 743 s.

Regarding `C[C@@H]1CCNC(=O)c2cc3ccc(C(=O)Nc4nc5ccccc5n4CCCN(C)C)cc3n21`, the RP-LC retention time came to 642 s.

In the case of `CCC(C)NC(=O)N1CC(n2cc(C(=O)NCC3CC3)nn2)C1` (stereo not given), the RP-LC retention time was determined as 662 s.

`Cc1cc(F)ccc1NC(=O)CCNc1cnc2cnccn12` returned an RP-LC retention time of 578 s.

Compound `COC[C@H]1NC(=O)CC[C@H]1C(=O)Nc1ccc2c(c1)OCCO2` yielded an RP-LC retention time of 632 s.

For `CN1CCN(CCc2ccc(Cl)c(Cl)c2)CC1`, the RP-LC retention time was found to be 668 s.

The compound `CCN(C(=O)Cn1nc2cc(-c3ccccc3)nc(C)n2c1=O)c1ccccc1` yielded an RP-LC retention time of 985 s.

`O=C(Cc1ccc(Br)cc1)NCC(=O)N1CCCc2ccccc21` came in with an RP-LC retention time of 876 s.

As for `CC1Cc2ccccc2N1C(=O)c1ccc(=O)n(CCC(=O)NC2CCCCCC2)n1` (stereo not given), the RP-LC retention time came out at 861 s.

Compound `Cc1ccc(CN2CCn3c(nnc3[C@@H]3C[C@@H](O)CN3Cc3cccnc3)C2)s1` came in with an RP-LC retention time of 566 s.

`CCOC(=O)c1ccc(Nc2c(CC)c(C)nc3nc(-c4ccccc4)nn23)cc1` displayed an RP-LC retention time of 990 s.

`O=C(Cn1nc2c(cc1=O)CCCCC2)Nc1cccc(N2CCCCS2(=O)=O)c1` had an RP-LC retention time of 762 s.

For the compound `O=C(NCc1ccc(F)c(Cl)c1)C1CCCN(c2ncnc3c2oc2ccccc23)C1` (stereo not given), the RP-LC retention time was 818 s.

`Cn1cc(-c2ccc(F)cc2)cc1C(=O)N1CCCC1` returned an RP-LC retention time of 906 s.

`COc1cc(OC)cc(C(=O)N2CCC3(C2)C(=O)Nc2ccc(OC)cc23)c1` (stereo not given) had an RP-LC retention time of 710 s.

The compound `Cc1ccc(NC(=O)N(C)CCc2noc(COc3cccc(C)c3)n2)cc1` had an RP-LC retention time of 972 s.

Compound `COc1ccc(NS(=O)(=O)c2cc(-c3nc(C(C)(C)C)cs3)cs2)cc1Cl` registered an RP-LC retention time of 1220 s.
